Measurements: patent US8501746B2, “Organic compounds” (Xenon Pharmaceuticals Inc., priority 2006, dated 2013)
pIC50: −log10 of the molar value.

Key:
[1] = target: T1, stearoyl-CoA desaturase (SCD1) (Mus musculus, UniProt P13516); experiment: SCD microsomal assay: release of 3H2O from [9,10-3H]stearoyl-CoA in mouse liver microsomes; type: biochemical; conditions: 15 min incubation, 25° C.
T1 construct: Reactions are started by adding 50 μL of microsomes (1.25 mg/mL); from tissue; host or cells: liver microsomes of male ICR outbred mice on a high-carbohydrate, low-fat diet
T1 sequence (P13516 1-355): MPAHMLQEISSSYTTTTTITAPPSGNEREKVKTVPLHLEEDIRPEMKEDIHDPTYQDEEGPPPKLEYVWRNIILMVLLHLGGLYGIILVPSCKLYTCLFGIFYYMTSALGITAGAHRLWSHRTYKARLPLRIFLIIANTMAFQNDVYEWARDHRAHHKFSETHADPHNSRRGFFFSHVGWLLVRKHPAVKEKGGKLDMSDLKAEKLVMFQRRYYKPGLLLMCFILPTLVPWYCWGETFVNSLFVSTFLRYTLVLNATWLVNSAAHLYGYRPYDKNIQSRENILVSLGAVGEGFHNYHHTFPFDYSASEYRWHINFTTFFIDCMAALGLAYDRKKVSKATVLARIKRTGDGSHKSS
Procedure: Measuring Stearoyl-CoA Desaturase Inhibition Activity of a Test Compound Using Mouse Liver Microsomes
Livers are immediately rinsed with cold 0.9% NaCl solution, weighed and minced with scissors. All procedures are performed at 4° C. unless specified otherwise. Livers are homogenized in a solution (1/3 w/v) containing 0.25 M sucrose, 62 mM potassium phosphate buffer (pH 7.0), 0.15 M KCl, 15 mM N-acetylcysteine, 5 mM MgCl2, and 0.1 mM EDTA using 4 strokes of a Potter-Elvehjem tissue homogenizer. The homogenate is centrifuged at 10,400×g for 20 min to eliminate mitochondria and cellular debris. The supernatant is filtered through a 3-layer cheesecloth and centrifuged at 105,000×g for 60 min. The microsomal pellet is gently resuspended in the same homogenization solution with a small glass/teflon homogenizer and stored at −70° C. The absence of mitochondrial contamination is enzymatically assessed. The protein concentration is measured using bovine serum albumin as the standard.
Incubation of Mouse Liver Microsomes with Test Compounds:
Desaturase activity is measured as the release of ^3H2O from [9,10-^3H]stearoyl-CoA. Reactions per assay point conditions are as follows: 2 μL 1.5 mM stearoyl-CoA, 0.25 μL 1 mCi/mL ^3H stearoyl CoA, 10 μL 20 mM NADH, 36.75 μL 0.1 M PK buffer (K2HPO4/NaH2PO4, pH 7.2). The test compound or control solution is added in a 1 μL volume. […] The plates are mixed and after 15 min incubation on a heating block (25° C.), the reactions are stopped by the addition of 10 μL 60% PCA. An aliquot of 100 μL is then transferred to a filter plate pretreated with charcoal and the plate centrifuged at 4000 rpm for 1 minute. The flow through containing the ^3H2O released by the SCD1 desaturation reaction is added to scintillation fluid and the radioactivity measured in a Packard TopCount. The data is analysed to identify the IC50 for test compounds and reference compounds.
The activity was defined in terms of % SCD enzyme activity remaining at the desired concentration of the test compound or as the IC50 concentration.

Row | SMILES | melting point | pIC50 [1]
1 | Cc1nc(-n2ccc(OCC3CC3)cc2=O)sc1C(=O)NCc1ccccc1 [Example 1.1, N-Benzyl-2-(4-(cyclopropylmethoxy)-2-oxopyridin-1(2H)-yl)-4-methylthiazole-5-carboxamide] | 218 to 220 °C | 6.40
2 | COc1ccn(-c2nc(C)c(C(=O)NCc3ccccc3)s2)c(=O)c1 [Example 1.2, N-Benzyl-2-(4-methoxy-2-oxopyridin-1(2H)-yl)-4-methylthiazole-5-carboxamide] | 205 to 208 °C | 7.05
3 | Cc1nc(-n2ccc(OCc3ccccc3)cc2=O)[nH]c1C(=O)NCc1ccccc1 [Example 1.7, N-Benzyl-2-(4-(benzyloxy)-2-oxopyridin-1(2H)-yl)-4-methyl-1H-imidazole-5-carboxamide] | 183 to 184 °C | 6.66
4 | Cc1nc(-n2ccc(O)cc2=O)sc1C(=O)NCc1ncco1 [Example 1.22, 2-(4-Hydroxy-2-oxopyridin-1(2H)-yl)-4-methyl-N-(oxazol-2-ylmethyl)thiazole-5-carboxamide] | – | 6.37
5 | Cc1nc(-n2cccc(C(F)(F)F)c2=O)sc1C(=O)NCc1ccccc1 [Example 3.5, N-Benzyl-4-methyl-2-(2-oxo-3-(trifluoromethyl)pyridin-1(2H)-yl)thiazole-5-carboxamide] | 203 to 204 °C | 6.82
6 | Cc1nc(-n2ccccc2=O)sc1C(=O)NCc1ccc(F)cc1 [Example 3.11, N-(4-Fluorobenzyl)-4-methyl-2-(2-oxopyridin-1(2H)-yl)thiazole-5-carboxamide] | 170 to 172 °C | 6.64
7 | Cc1cc(-n2ccc(OCc3ccccc3)cc2=O)oc1C(=O)NCc1ccccc1 [Example 3.19, N-Benzyl-5-(4-(benzyloxy)-2-oxopyridin-1(2H)-yl)-3-methylfuran-2-carboxamide] | 191 to 192 °C | 5.24
8 | Cc1nc(-n2ccc3c(O)cccc3c2=O)sc1C(=O)NCc1ccccc1 [Example 7.1, N-Benzyl-2-(5-hydroxy-1-oxoisoquinolin-2(1H)-yl)-4-methylthiazole-5-carboxamide] | 218 to 221 °C | 7.52
9 | Cc1cc(-n2ccc(O)cc2=O)sc1C(=O)NCc1cccnc1 [Example 7.6, 5-(4-Hydroxy-2-oxopyridin-1(2H)-yl)-3-methyl-N-(pyridin-3-ylmethyl)thiophene-2-carboxamide] | 110 °C (dec.) | 6.10
10 | Cc1nc(-n2ccc(C3CC3)cc2=O)sc1C(=O)NCc1ccccc1 [Example 19.1, N-Benzyl-2-(4-cyclopropyl-2-oxopyridin-1(2H)-yl)-4-methylthiazole-5-carboxamide] | 149 to 151 °C | –
11 | Cc1ccn(-c2nc(C)c(C(=O)NCc3ccccc3)s2)c(=O)c1 [Example 20, N-Benzyl-4-methyl-2-(4-methyl-2-oxopyridin-1(2H)-yl)thiazole-5-carboxamide] | 145 to 147 °C | –
12 | Cc1nc(-n2ccc(OCc3c(C)noc3C)cc2=O)sc1C(=O)NCc1ccccc1 [Example 21.13, N-benzyl-2-(4-((3,5-dimethylisoxazol-4-yl)methoxy)-2-oxopyridin-1(2H)-yl)-4-methylthiazole-5-carboxamide] | – | 6.74
13 | Cc1nc(-n2ccc(OCc3ccccc3)cc2=O)sc1C(=O)NCc1ccc(Cl)nc1 [Example 22.19, 2-(4-(Benzyloxy)-2-oxopyridin-1(2H)-yl)-N-((6-chloropyridin-3-yl)methyl)-4-methylthiazole-5-carboxamide] | – | 7.30
14 | Cc1cc(-n2ccc(CCc3ccccc3)cc2=O)sc1C(=O)NCc1ccccc1 [Example 24, N-benzyl-3-methyl-5-(2-oxo-4-phenethylpyridine-1(2H)-yl)thiophene-2-carboxamide] | 145 to 146 °C | –
15 | Cc1cc(-n2ccc(OCCCO)cc2=O)sc1C(=O)NCc1cccc(F)c1 [Example 25, N-(3-Fluorobenzyl)-5-(4-(3-hydroxypropoxy)-2-oxopyridin-1(2H)-yl)-3-methylthiophene-2-carboxamide] | 135 to 137 °C | –
16 | Cc1nc(-n2ccc(N3CCNC3=O)cc2=O)sc1C(=O)NCc1ccccc1 [Example 26, N-Benzyl-4-methyl-2-(2-oxo-4-(2-oxoimidazolidin-1-yl)pyridin-1(2H)-yl)thiazole-5-carboxamide] | > 300 °C | –
17 | COc1ccn(-c2nc(C)c(C(=O)NCc3ccc[n+]([O-])c3)s2)c(=O)c1 [Example 27, 3-((2-(4-methoxy-2-oxopyridin-1(2H)-yl)-4-methylthiazole-5-carboxamido)methyl)pyridine 1-oxide] | 255 to 257 °C | –
